From ChEMBL document CHEMBL1201862, “PubChem BioAssay data set” (2004)
Active and inactive are the calls of the source.

How the values were obtained:
[1] = biological target: Dual specificity tyrosine-phosphorylation-regulated kinase 1A (Rattus norvegicus, UniProt Q63470); format: biochemical, Homo sapiens
[2] = biological target: T1, Corticotropin-releasing factor receptor 2/Corticotropin-releasing factor-binding protein (Homo sapiens, UniProt P24387+Q13324); assay: Dose Response confirmation of uHTS hits for small molecule antagonists of the CRF-binding protein and CRF-R2 receptor complex.; format: functional; conditions: read-out: IC50_Mean
T1 sequence (Q13324 whole entry): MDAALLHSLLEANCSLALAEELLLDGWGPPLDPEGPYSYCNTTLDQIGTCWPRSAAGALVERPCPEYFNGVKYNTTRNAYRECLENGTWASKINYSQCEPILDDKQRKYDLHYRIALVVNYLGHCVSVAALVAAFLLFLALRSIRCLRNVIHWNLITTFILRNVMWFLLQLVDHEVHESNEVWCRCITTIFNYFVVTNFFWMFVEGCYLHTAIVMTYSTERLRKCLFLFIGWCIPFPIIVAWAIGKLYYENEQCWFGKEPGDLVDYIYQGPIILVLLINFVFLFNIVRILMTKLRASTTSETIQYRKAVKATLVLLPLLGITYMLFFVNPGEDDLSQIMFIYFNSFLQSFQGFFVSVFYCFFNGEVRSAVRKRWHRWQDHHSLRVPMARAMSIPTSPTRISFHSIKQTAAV
T1 sequence (P24387 whole entry): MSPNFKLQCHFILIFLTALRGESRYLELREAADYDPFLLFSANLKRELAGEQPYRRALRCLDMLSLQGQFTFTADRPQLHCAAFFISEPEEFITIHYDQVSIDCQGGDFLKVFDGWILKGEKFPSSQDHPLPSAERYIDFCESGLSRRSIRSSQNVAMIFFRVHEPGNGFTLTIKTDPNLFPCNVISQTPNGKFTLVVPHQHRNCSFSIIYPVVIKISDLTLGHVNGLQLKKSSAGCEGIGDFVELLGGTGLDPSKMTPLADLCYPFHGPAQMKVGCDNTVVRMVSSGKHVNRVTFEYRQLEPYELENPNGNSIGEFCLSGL

cells [3] = format: functional, cell-based
cells [4] = format: functional, cell-based; remark: listed apart in the source
[5] = biological target: T1, Corticotropin-releasing factor receptor 2/Corticotropin-releasing factor-binding protein; assay: activators of CRF receptor 2 with binding protein – uHTS hits, confirmation (AID 602473); format: functional; conditions: read-out: EC50_Mean
[6] = biological target: T2, Calpain-2 catalytic subunit (Sus scrofa, UniProt P43367); assay: pig calpain II inhibitor potency, dose response, biochemical, fluorogenic peptide substrate (AID 1420); format: functional
T2 sequence (P43367 whole entry): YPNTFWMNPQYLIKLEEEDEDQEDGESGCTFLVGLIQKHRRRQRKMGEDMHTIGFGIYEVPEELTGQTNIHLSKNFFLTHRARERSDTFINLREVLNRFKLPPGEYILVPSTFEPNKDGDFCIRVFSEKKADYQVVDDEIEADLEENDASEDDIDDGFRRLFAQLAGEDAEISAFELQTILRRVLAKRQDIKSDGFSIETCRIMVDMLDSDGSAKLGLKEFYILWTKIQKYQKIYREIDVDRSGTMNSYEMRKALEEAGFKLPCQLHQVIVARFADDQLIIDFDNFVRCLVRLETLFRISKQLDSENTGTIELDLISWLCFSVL

[7] = inhibitors of PGC1a acetylation in cells, dose response, cell-based, cherry-picked samples (AID 720514); format: functional;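 also: potency may reflect raised or lowered acetylation signal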
[8] = inhibitors of HIV Env-driven cell fusion, dose response, cherry-pick (AID 652057); format: functional, cell-based
[9] = ZM109 Env clade C HIV-1 fusion inhibitors, dose response, HeLa effector, CEM target cells, luciferase, cherry-pick (AID 652058); format: functional, cell-based
[10] = off-target signal loss in HeLa-CEM21 co-culture – HeLa F-luc CTL cells, cherry-picked, counter-screen for HIV-1 Env fusion inhibitor project, dose response (AID 652040); format: functional, cell-based;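 also: potency for signal decrease marking cytotoxic or nonspecific inhibition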
H4 = assay: Luminescence Cell-Based Dose Response HTS to Identify Activators of 5'UTR Stem-Loop Driven Prion Protein mRNA Translation in H4 Neuroglioblastoma Cells. [Related pubchem assays: 1829 (Project Summary), 1814 (Primary HTS)]; format: functional; conditions: Homo sapiens
[11] = Luminescence Cell-Based Dose Confirmation HTS to Identify Activators of 5'UTR Stem-Loop Driven Alpha-Synuclein mRNA Translation in H4 Neuroglioblastoma Cells. [Related pubchem assays: 1829 (Project Summary), 1814 (Primary HTS)]; format: functional
Paired box protein Pax-8 = Paired box protein Pax-8 (Homo sapiens, UniProt Q06710); assay: inhibitors of PAX8-driven TPO luciferase reporter, dose response, RMG-I cells, cherry-pick (AID 687027); format: functional, cell-based;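 also: luciferase reporter driven by Pax8 target thyroperoxidase promoter measured by SteadyGlo luminescence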
Chain of Paired box protein Pax-8 (Q06710 whole entry): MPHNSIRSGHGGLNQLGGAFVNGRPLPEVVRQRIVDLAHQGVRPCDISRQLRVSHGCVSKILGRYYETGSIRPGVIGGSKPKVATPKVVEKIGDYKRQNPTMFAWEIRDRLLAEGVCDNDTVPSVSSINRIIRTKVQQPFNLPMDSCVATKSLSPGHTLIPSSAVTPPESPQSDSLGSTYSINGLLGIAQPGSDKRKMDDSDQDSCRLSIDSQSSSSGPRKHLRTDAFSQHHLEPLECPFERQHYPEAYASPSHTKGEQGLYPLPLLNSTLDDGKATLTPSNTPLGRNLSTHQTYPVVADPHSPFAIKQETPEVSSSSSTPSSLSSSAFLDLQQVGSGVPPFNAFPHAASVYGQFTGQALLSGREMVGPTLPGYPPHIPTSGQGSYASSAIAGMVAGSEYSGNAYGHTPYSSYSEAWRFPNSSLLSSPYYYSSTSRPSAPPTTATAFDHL

[12] = inhibitors of intracellular T. cruzi replication, confirmation, NIH3T3 host cells, beta-gal luminescence (AID 2044); format: functional, cell-based;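 also: intracellular parasites grown in NIH/3T3 mouse fibroblasts as host cells; luminescent beta-galactosidase reporter signal from transgenic T. cruzi replicating inside host cells; inhibitors lower the luminescence signal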
[13] = Luminescence Cell-Based Dose Response HTS to Identify Activators of Luciferase Translation or Activity in H4 […] Cells. [Related pubchem assays: 1829 (Project Summary), 1814 (Primary HTS)]; format: functional
[14] = cytotoxicity toward NIH3T3 fibroblasts, dose response, counter-screen, cell-based, ATP luminescence, mouse fibroblasts (AID 2010); format: functional;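 also: cells exposed to compound for about 90 hours before reading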
[15] = biological target: T3, Carboxy-terminal domain RNA polymerase II polypeptide A small phosphatase 1 (Homo sapiens, UniProt Q9GZU7); assay: inhibitors of CTDSP1, concentration-response testing, biochemical assay, absorbance-based, actives from ultra-high-throughput screening (AID 540297); format: functional
T3 sequence (Q9GZU7 whole entry): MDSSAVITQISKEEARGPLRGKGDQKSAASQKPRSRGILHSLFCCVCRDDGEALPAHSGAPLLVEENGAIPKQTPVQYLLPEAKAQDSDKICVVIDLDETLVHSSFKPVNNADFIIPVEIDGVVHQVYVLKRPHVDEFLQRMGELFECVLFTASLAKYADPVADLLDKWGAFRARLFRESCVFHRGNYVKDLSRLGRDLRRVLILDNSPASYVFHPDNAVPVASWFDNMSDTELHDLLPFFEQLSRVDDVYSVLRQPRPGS

[16] = biological target: T4, Long-chain-fatty-acid--AMP ligase FadD28 (Mycobacterium tuberculosis, UniProt P9WQ59); assay: Fluorescence polarization aasay to screen for inhibitors that compete for the binding of FadD28 to a bisubstrate Measured in Biochemical System Using Plate Reader - 2147-01_Inhibitor_Dose_CherryPick_Activity.; format: functional, Mycobacterium tuberculosis H37Rv
T4 sequence (P9WQ59 whole entry): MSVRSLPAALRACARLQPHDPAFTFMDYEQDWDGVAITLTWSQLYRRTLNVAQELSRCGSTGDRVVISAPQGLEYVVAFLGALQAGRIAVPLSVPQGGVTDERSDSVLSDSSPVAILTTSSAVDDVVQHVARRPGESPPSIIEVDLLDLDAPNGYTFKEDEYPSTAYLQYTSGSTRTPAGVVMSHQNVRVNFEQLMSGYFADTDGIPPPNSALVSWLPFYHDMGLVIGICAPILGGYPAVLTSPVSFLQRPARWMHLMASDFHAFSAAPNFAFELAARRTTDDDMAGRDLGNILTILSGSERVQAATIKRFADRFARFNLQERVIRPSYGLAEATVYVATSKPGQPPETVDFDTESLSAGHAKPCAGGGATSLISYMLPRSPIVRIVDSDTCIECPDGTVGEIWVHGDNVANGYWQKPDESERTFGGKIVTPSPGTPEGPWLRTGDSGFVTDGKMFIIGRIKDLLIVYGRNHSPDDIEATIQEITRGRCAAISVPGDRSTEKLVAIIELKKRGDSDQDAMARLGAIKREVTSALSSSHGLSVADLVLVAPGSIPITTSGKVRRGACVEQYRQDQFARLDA

Cytochrome P450 2C19 = Cytochrome P450 2C19 (Homo sapiens, UniProt P33261); assay: Cytochrome panel assay with activity outcomes. Panel member name: p450-cyp2c19 Compounds with AC50 equal or less than 10 uM are considered active; format: functional; conditions: read-out: AC50
Chain of Cytochrome P450 2C19 (P33261 whole entry): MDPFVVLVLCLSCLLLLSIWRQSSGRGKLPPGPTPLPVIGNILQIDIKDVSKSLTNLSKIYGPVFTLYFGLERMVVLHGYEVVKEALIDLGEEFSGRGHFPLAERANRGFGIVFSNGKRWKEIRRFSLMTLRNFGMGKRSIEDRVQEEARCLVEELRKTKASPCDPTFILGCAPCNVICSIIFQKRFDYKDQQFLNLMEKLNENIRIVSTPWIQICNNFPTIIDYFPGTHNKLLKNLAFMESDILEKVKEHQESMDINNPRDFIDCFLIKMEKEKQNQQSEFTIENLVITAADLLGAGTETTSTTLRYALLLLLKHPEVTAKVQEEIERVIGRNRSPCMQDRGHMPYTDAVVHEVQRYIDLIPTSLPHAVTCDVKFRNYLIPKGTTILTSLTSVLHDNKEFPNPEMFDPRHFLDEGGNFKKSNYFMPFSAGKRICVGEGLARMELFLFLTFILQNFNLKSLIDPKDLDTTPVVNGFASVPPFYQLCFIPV

Leucine aminopeptidase = biological target: T5, Leucine aminopeptidase (Plasmodium falciparum 3D7, UniProt Q8IL11); assay: P. falciparum M17LAP inhibitors, primary screen, biochemical, fluorogenic H-Leu-NHMec substrate, 1536-well (AID 1619); format: functional
T5 sequence (Q8IL11 whole entry): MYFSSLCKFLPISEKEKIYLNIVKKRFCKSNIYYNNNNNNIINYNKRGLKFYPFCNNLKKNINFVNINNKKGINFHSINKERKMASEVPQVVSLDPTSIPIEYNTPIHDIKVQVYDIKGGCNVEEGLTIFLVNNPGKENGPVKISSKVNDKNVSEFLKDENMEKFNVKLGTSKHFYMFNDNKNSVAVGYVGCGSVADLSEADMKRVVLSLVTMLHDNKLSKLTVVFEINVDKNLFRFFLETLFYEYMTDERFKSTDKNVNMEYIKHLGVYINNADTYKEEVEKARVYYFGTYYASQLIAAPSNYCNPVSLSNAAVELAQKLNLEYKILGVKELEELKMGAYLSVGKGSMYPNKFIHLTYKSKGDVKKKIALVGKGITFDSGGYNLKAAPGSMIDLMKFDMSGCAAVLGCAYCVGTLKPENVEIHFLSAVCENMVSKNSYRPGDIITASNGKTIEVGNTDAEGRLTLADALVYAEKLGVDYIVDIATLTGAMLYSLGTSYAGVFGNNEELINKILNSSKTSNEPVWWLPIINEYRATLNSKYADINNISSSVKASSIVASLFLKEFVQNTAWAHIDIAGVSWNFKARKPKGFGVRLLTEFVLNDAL

[17] = NIH:OVCAR-3 ovarian cancer cell cytotoxicity, dose response, PAX8 inhibitor project, plate reader, dry powder samples (AID 743044); format: functional, cell-based
[18] = cytotoxicity in OVCAR8 ovarian cancer cells, dose response, PAX8 project, cell-based, plate reader, dry powder samples (AID 743197); format: functional; conditions: OVCAR-8
[19] = A549 cell cytotoxicity, dose response, cytotoxicity control, plate reader, cherry-pick, antagonist series (AID 743412); format: functional, cell-based

SMILES: CCCC[n+]1ccc(-c2nc3cc([N+](=O)[O-])ccc3[nH]2)cc1
- AC50 [1]: 2.24 µM (active)

SMILES: COc1ccc(/C=C/C(=O)NCCSCc2ccco2)cc1OC
- IC50 [2]: > 47.1 µM (inactive)
- EC50 (cells [3]): > 350 µM (not active)
- EC50 (cells [4]): > 350 µM (not active)
- EC50 [5]: > 53 µM (inactive)

SMILES: FC(F)Oc1ccc(NC(S)=Nc2ccc3c[nH]nc3c2)cc1
- EC50 (cells [3]): > 350 µM (not active)
- EC50 (cells [4]): > 350 µM (not active)

SMILES: Cc1ccc(-c2cc(C(=O)N3CCCCCC3)no2)cc1
- EC50 (cells [3]): 10.2 µM (active)
- EC50 (cells [4]): > 350 µM (not active)

SMILES: O=C(COn1nnc2ccc(Cl)cc21)NC12CC3CC(CC(C3)C1)C2
- IC50 [6]: > 50 µM (not active)
- AC50 [7]: 31.5 µM (active)

SMILES: CCOC(=O)c1ccc(NC2c3ncccc3C(=O)N2Cc2ccc(F)cc2)cc1 (centres undefined)
- AC50 [8]: 3.06 µM (active)
- AC50 [9]: 521 nM (active)
- AC50 [10]: 2.84 µM (active)

SMILES: N#CC1(NC(=O)Cn2ncc(Cl)c(Cl)c2=O)CCCCC1
- EC50 (H4): > 120 µM (not active)
- EC50 [11]: > 120 µM (not active)
- AC50 (Paired box protein Pax-8): 3.01 µM (active)
- EC50 [12]: 2.22 µM (active)
- EC50 [13]: > 60 µM (not active)
- AC50 [7]: 10.8 µM (active)
- EC50 [14]: 3.27 µM (active)

SMILES: Cc1ccc(-c2cc(C(=O)Nc3cccnc3)c3ccccc3n2)o1
- IC50 [15]: 9.9 µM (active)

SMILES: C=CCOc1ccc(/C=C2\SC(Nc3cccnc3)=NC2=O)cc1
- AC50 [1]: 2.93 µM (active)
- EC50 (cells [3]): > 350 µM (not active)
- EC50 (cells [4]): > 350 µM (not active)

SMILES: O=C(Nc1cccc(-c2nc3cccnc3s2)c1)c1cccnc1Cl
- AC50 [1]: 0.651 µM (active)

SMILES: Cc1cccc(NC(=O)Cn2c(=O)n3nc(CCn4nc(C)cc4C)nc3c3ccccc32)c1
- AC50 [16]: 44.4 µM (active)
- AC50 (Cytochrome P450 2C19): 35.5 nM (inconclusive)

SMILES: O=C(O)c1ccc(CSc2nc3ccc(NC(=O)c4ccccc4C(=O)O)cc3s2)cc1
- IC50 [15]: 6.66 µM (active)

SMILES: CCCC1CCC(=C(C#N)C(N)=O)CC1 (centres undefined)
- EC50 (cells [3]): 41.6 µM (active)
- EC50 (cells [4]): > 350 µM (not active)

SMILES: Nc1nc(-c2cccs2)c(-c2cccs2)s1
- AC50 [16]: > 100 µM (inactive)

SMILES: Cc1cc(C(=O)O)ccc1-c1ccc(/C=C2\NC(=O)N(Cc3ccccc3Cl)C2=O)o1
- IC50 [15]: 7.71 µM (active)
- IC50 (Leucine aminopeptidase): 13.6 µM (active)

SMILES: NC(=O)COc1ccc(/C=N\NC(=O)c2ccc(-c3ccccc3)cc2)cc1
- IC50 [15]: 6.66 µM (active)

SMILES: Clc1ccc2[nH]c(COc3ccccc3)nc2c1
- AC50 [1]: 6.23 µM (active)

SMILES: C[C@H]1CCCCO[C@@H](CN(C)Cc2ccc(C(F)(F)F)cc2)[C@@H](C)CN([C@@H](C)CO)C(=O)c2cc(NC(=O)Nc3ccc(F)cc3)ccc2O1
- AC50 [17]: 66.3 µM (active)
- AC50 (Paired box protein Pax-8): 5.26 µM (active)
- AC50 [18]: 56 µM (active)

SMILES: C[C@@H]1CN([C@@H](C)CO)C(=O)Cc2cc(NC(=O)Nc3ccc(C(F)(F)F)cc3)ccc2O[C@H]1CN(C)C(=O)NC1CCCCC1
- AC50 [17]: 54 µM (active)
- AC50 (Paired box protein Pax-8): 8.4 µM (active)

SMILES: CCC(=O)N(C)C[C@H]1Oc2cc(C#CCC(C)C)ccc2S(=O)(=O)N([C@H](C)CO)C[C@@H]1C
- AC50 [19]: 32.1 µM (active)

SMILES: COc1ccccc1OCC(=O)N/N=C/c1c(O)ccc2ccccc12
- EC50 (cells [3]): > 350 µM (not active)
- EC50 (cells [4]): 10.8 µM (active)
